Results: patent US6410041B1, “Culturing cells in presence of amphipathic weak bases and/or cations and multiple drug resistance inhibitor containing reserpine” (priority 1998, dated 2002)
In brackets after ≈: the same amount, converted by molar mass. Read-outs that look alike come from different tables or passages of the source.

Columns and labels:
S. aureus = assay: MICs of antimicrobials with small molecule MDR inhibitor (I) and high pH; assay type: cell-based, Staphylococcus aureus; conditions: for Potentiation factor (pH 7/(pH 9 + I)): pH 7 vs pH 9 + I
Experimental: (§1) Determination of minimal inhibitory concentrations (MICs). MICs were determined by serial two-fold dilution of antimicrobials in Mueller-Hinton broth containing chloramphenicol ([…]). […] Around 10^5 cells were inoculated in 1 ml of medium for the test. MICs were read after 18 hours of incubation at 37 C. with aeration. The 50% inhibitory concentration (IC50) was determined by growing cells in microtiter plate wells and reading the optical density after overnight growth at 650 nm.

[1] = tested on: Staphylococcus aureus RN 4222 (WT); assay: MIC determination in wild type S. aureus; assay type: cell-based
Experimental: as §1

[2] = tested on: Staphylococcus aureus KLE 820 (norA−); assay: microbe, parasite or virus in culture; assay type: cell-based; conditions: for Sensitivity of norA- as compared to the wild type: in the absence of reserpine
Excerpt: Disruption of the norA gene. Chloramphenicol acetyltransferase (CAT) gene was isolated by digesting plasmid pLI50 (10) with Sau3A (New England Biolabs). The CAT gene was cloned into the BamHI site of plasmid pSP72 (Promega) to yield plasmid PCH22. Chromosomal DNA from S. aureus RN4220 was isolated according to the protocol of Qiagen, Inc. Part of the 1050 bp norA gene lacking a 80 bp N-terminus and a 20 bp C-terminus was PCR-amplified from chromosomal DNA using primer A:5′-[…]-[…] and primer B:5′-[…]. This fragment was cloned into the EcoRI/EcoRV site of PCH22 to yield plasmid PCH23. S. aureus were transformed by PCH23 using electroporation (11). Cells were plated on trypticase soy agar (TSA) with chloramphenicol. A transformant colony was picked after 24 hours of incubation at 37 C., regrown, plated on CAM medium and a large colony was picked for further work.
as §1

[3] = Staphylococcus aureus, pH 7, read-out: MIC
[4] = Staphylococcus aureus, pH 9, read-out: MIC
[5] = Staphylococcus aureus, RN 4222 (WT), pH 7.2, read-out: MIC
[6] = Staphylococcus aureus, RN 4222 (WT), pH 9, read-out: MIC
[7] = Staphylococcus aureus, pH 7.2, KLE 820 (norA−), pH 7.2
[8] = Staphylococcus aureus, pH 9, KLE 820 (norA−), pH 9
[9] = Staphylococcus aureus, RN 4222 (WT), −R (no reserpine), read-out: MIC
[10] = RN 4222 (WT), +R (20 μg/mL reserpine)
[11] = Staphylococcus aureus, KLE 820 (norA−), −R (no reserpine)
[12] = KLE 820 (norA−), +R (20 μg/mL reserpine)

| SMILES | MIC [1, 5] | MIC [1, 6] | MIC [2, 7] | MIC [2, 8] | Sensitivity norA− at pH 9 vs. WT at pH 7.2 [2] | MIC [1, 9] | Sensitivity of norA- as compared to the wild type [2] | MIC [1, 10] | MIC [2, 11] | further results |
| --- | --- | --- | --- | --- | --- | --- | --- | --- | --- | --- |
| COc1ccc2cc3[n+](cc2c1OC)CCc1cc2c(cc1-3)OCO2 [Berberine] | 60 mg/L | 3.75 mg/L | 7.5 mg/L | 0.23 mg/L | 260 | – | – | – | – | MIC (S. aureus; [3]): 60 mg/L; MIC (S. aureus; [4]): 7.5 mg/L; MIC (S. aureus; Staphylococcus aureus, MDR inhibitor and high pH, read-out: MIC): 0.012 mg/L; substrate of MDR pumps (S. aureus; cationic plant antimicrobial alkaloids): good substrates of MDR pumps; MIC (S. aureus; pH 7 + I (10 μg/mL)): 0.4 mg/L; Ratio (S. aureus; pH 7 vs pH 7 + I): 150; Potentiation factor (pH 7/(pH 9 + I)) (S. aureus): 4,800; MIC (S. aureus; pH 9 + I): 0.0125 mg/L; Ratio (S. aureus; pH 9 vs pH 9 + I): 600; increase in potency by MDR inhibitor (S. aureus; proprietary MDR inhibitor (I), Table 3, pH 7): 150 fold; substrate of NorA ([2]; based on comparison of MIC from wild type and norA−): substrates of NorA; increase in sensitivity, pH 9 combined with norA mutation ([2]; norA− at pH 9 vs wild type at neutral pH): 260 fold; increase in sensitivity by norA mutation ([2]; norA− vs wild type): 32 fold |
| CC(=O)OCC1=C(C(=O)O)N2C(=O)[C@@H](NC(=O)Cc3cccs3)[C@H]2SC1 [Cephalothin] | – | – | – | – | – | 0.15 mg/L (≈ 0.378 µM) | 1 | – | – | – |
| [H]/N=C(\N/C(=N/[H])NCCCCCCNC(=N)NC(=N)Nc1ccc(Cl)cc1)Nc1ccc(Cl)cc1 [Chlorhexidine] | 0.5 mg/L (≈ 0.989 µM) | 0.06 mg/L (≈ 0.119 µM) | 0.125 mg/L (≈ 0.247 µM) | 0.0156 mg/L (≈ 0.0309 µM) | 32 | – | – | – | – | MIC (S. aureus; [3]): 0.5 mg/L (≈ 0.989 µM); MIC (S. aureus; [4]): 0.12 mg/L (≈ 0.237 µM); potentiation by high pH and MDR inhibitor (S. aureus; high pH combined with MDR inhibitor / MDR inactivation): 133 fold; MIC (S. aureus; pH 7 + I (10 μg/mL)): 0.06 mg/L; Ratio (S. aureus; pH 7 vs pH 7 + I): 8.3; Potentiation factor (pH 7/(pH 9 + I)) (S. aureus): 133; MIC (S. aureus; pH 9 + I): 0.0037 mg/L; Ratio (S. aureus; pH 9 vs pH 9 + I): 32; effect of pH 9 on sensitivity / effectiveness ([1]; change of pH from 7 to 9): significantly increased the effectiveness |
| O=C(O)c1cn(C2CC2)c2cc(N3CCNCC3)c(F)cc2c1=O [Ciprofloxacin] | – | – | – | – | – | 0.67 mg/L (≈ 2.02 µM) | – | 0.33 mg/L (≈ 0.996 µM) | – | – |
| CCC[C@@H]1C[C@@H](C(=O)N[C@@H]([C@H]2O[C@H](SC)[C@H](O)[C@@H](O)[C@H]2O)[C@H](C)Cl)N(C)C1 [Clindamycin] | – | – | – | – | – | 0.047 mg/L (≈ 0.111 µM) | 1 | – | – | – |
| CC[C@H]1OC(=O)[C@H](C)[C@@H](O[C@H]2C[C@@](C)(OC)[C@@H](O)[C@H](C)O2)[C@H](C)[C@@H](O[C@@H]2O[C@H](C)C[C@H](N(C)C)[C@H]2O)[C@](C)(O)C[C@@H](C)C(=O)[C@H](C)[C@@H](O)[C@]1(C)O [Erythromycin] | – | – | – | – | – | – | 1 | – | 0.195 mg/L (≈ 0.266 µM) | MIC ([1]; Staphylococcus aureus): 0.195 mg/L (≈ 0.266 µM) |
| CC[n+]1c(-c2ccccc2)c2cc(N)ccc2c2ccc(N)cc21 [EtBr, ethidium bromide] | – | – | 0.312 mg/L | 0.01 mg/L | 500 | – | 16 | 1.25 mg/L | 0.33 mg/L | MIC ([1]; Staphylococcus aureus): 5 mg/L; MIC ([1]; Staphylococcus aureus, pH 7.2): 5 mg/L; MIC ([1]; Staphylococcus aureus, pH 9): 0.078 mg/L; MIC [2, 12]: 0.33 mg/L |
| NC[C@H]1O[C@H](O[C@H]2[C@H](O)[C@@H](O[C@H]3O[C@H](CO)[C@@H](O)[C@H](N)[C@H]3O)[C@H](N)C[C@@H]2N)[C@H](O)[C@@H](O)[C@@H]1O [Kanamycin] | – | – | – | – | – | 0.33 mg/L (≈ 0.681 µM) | 1 | – | – | – |
| CCC[C@@H]1C[C@@H](C(=O)N[C@@H]([C@H]2O[C@H](SC)[C@H](O)[C@@H](O)[C@H]2O)[C@@H](C)O)N(C)C1 [Lincomycin] | – | – | – | – | – | 0.6 mg/L (≈ 1.48 µM) | 1 | – | – | – |
| CCn1cc(C(=O)O)c(=O)c2cc(F)c(N3CCNCC3)cc21 [Norfloxacin] | 1.25 mg/L (≈ 3.91 µM) | 1.25 mg/L (≈ 3.91 µM) | 0.33 mg/L (≈ 1.03 µM) | 0.33 mg/L (≈ 1.03 µM) | 4 | 1.25 mg/L (≈ 3.91 µM) | 4 | 0.67 mg/L (≈ 2.1 µM) | 0.33 mg/L (≈ 1.03 µM) | MIC [2, 12]: 0.33 mg/L (≈ 1.03 µM) |
